Measured values taken from patent publication US20220144812A1, “QUINOLINE DERIVATIVES AND THEIR USE FOR THE TREATMENT OF CANCER” (Epizyme, Inc., priority 2019, published 2022).
Like-named read-outs stand apart in the source and are kept apart here.

Assays:
[1] = test system: H3K18Ac in HB-CLS-2 cells; assay: H3K18AC in-cell western (ICW) assay; type: cell-based; details: H3K18Ac in-cell western; read-out: CREBBP ICW IC50
In short: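 In-cell western: after methanol fixation, blocking, overnight 4° C anti-H3K18Ac staining, then 800CW secondary plus DRAQ5 for DNA content, integrated intensities were scanned at 800 and 700 nm. Before this, compound exposure lasted 2 hr at 37° C in HB-CLS-2 cells plated 16–24 hours earlier. Values expressed as IC50 (μM).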

CREBBP (1084-1701) = biological target: T1, CREBBP (1084-1701) (Homo sapiens, UniProt Q92793); assay: Biochemical assay for CREBBP (1084-1701), SAMDI; details: SAMDI, read-out: CREBBP Biochemistry IC50
T1 construct: measured in the following biochemical assay using CREBBP (1084-1701); purchased
T1 sequence (Q92793 1084-1701): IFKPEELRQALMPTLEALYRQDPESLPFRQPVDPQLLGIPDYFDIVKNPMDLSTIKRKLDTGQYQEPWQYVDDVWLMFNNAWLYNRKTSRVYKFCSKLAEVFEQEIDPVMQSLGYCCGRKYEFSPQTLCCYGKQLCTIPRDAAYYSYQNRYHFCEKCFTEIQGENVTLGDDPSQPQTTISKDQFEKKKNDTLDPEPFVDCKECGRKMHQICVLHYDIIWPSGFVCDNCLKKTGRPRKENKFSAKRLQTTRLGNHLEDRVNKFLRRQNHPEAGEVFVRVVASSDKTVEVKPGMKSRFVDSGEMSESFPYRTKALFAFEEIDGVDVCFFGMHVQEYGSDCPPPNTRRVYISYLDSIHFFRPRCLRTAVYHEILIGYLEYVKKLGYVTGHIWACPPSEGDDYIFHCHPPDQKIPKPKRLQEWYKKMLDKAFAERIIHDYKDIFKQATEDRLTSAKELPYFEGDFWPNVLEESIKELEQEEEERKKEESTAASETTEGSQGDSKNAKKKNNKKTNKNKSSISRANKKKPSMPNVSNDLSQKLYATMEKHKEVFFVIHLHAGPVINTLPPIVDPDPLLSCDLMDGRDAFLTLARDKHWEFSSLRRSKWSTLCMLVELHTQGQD
In short: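 Acetyltransferase activity measured by SAMDI mass spectrometry after capture on biochip. Enzyme sat with compound 30 min at RT before acetyl-CoA and biotinylated H3 11-25 (K14R, K23R) peptide were added for 30 min at RT. Formic acid quench, bicarbonate neutralisation; IC50 values reported.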

647V cells = assay: High throughput proliferation (HTP) assay; type: cell-based; details: high throughput proliferation, read-out: CREBBP HTP IC50
In short: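 Proliferation IC50 (micromolar) derived from a 7-day CellTiter-Glo viable-cell readout in 647V cells exposed, in triplicate, to rising compound concentrations; cells grown in DMEM plus 15% heat-inactivated FBS at 37° C under 5% CO2.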

EP300 (P300(1048-1664)) = biological target: T2, EP300 (P300(1048-1664)) (Homo sapiens, UniProt Q09472); assay: Biochemical assay for EP300, SAMDI; details: EP300, SAMDI; read-out: EP300 Biochemistry IC50
T2 construct: P300(1048-1664)
T2 sequence (Q09472 1048-1664): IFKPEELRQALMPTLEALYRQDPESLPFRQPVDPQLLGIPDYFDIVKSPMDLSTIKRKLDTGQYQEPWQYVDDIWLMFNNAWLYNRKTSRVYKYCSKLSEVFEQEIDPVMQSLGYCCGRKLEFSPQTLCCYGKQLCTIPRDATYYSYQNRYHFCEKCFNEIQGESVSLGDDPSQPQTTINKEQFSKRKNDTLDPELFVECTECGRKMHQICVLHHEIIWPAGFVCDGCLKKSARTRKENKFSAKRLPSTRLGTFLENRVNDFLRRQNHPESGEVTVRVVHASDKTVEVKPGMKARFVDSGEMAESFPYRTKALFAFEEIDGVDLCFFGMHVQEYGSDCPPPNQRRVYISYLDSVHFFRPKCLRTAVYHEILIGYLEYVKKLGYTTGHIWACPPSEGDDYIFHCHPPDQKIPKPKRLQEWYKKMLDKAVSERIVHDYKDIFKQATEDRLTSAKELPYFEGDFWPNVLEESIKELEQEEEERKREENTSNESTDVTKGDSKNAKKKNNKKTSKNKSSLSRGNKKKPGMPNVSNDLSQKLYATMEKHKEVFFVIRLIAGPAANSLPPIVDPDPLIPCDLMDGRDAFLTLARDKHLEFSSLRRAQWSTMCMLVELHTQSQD
Excerpt: The following example describes materials and methods relating to a biochemical assay for EP300. IC50 values (micromolar (μM)) are summarized in Table 1, Table 2, and Table 3 under the column labeled: “EP300 Biochemistry IC50 (micromolar).”

Compound	IC50 [1]	IC50 (CREBBP (1084-1701))	IC50 (647V cells; Homo sapiens, 647-V)	IC50 (EP300 (P300(1048-1664)))	IC50 (647V cells)
CCn1ncc(CN(C)C(=O)c2nc(-c3cnnc(N)c3)nc3ccc(Cl)cc23)c1C [Compound 434]	1720 nM	3510 nM	2250 nM	2700 nM	
CCn1ncc(CN(C)C(=O)c2cc(-c3ccc(OCC(O)CNC)c(C)n3)nc3ccc(Cl)cc23)c1C (stereo not drawn) [Compound 435]	163 nM	36.8 nM		15.8 nM	102 nM
CCn1ncc(CN(C)C(=O)c2nc(-c3cc(C)c4[nH]c(=O)[nH]c4c3)nc3ccc(Cl)cc23)c1C [Compound 436]	130 nM	7.21 nM	94.2 nM	4.2 nM	
CCn1ncc(CN(C)C(=O)c2cc(-c3cc4n[nH]cc4cn3)nc3ccc(Cl)cc23)c1C [Compound 437]	74.5 nM	7.82 nM	119 nM	5.2 nM	
CCn1ncc(CN(C)C(=O)c2nc(-c3cc(N)c4cn[nH]c4c3)nc3ccc(Cl)cc23)c1C [Compound 438]	84.8 nM	2.5 nM	78.5 nM	37.8 nM	
CCn1ncc(CN(C)C(=O)c2nc(-c3cc(C)c4nc[nH]c4c3)nc3ccc(COC)cc23)c1C [Compound 439]	919 nM	170 nM	752 nM	628 nM	
CCn1ncc(CN(C)C(=O)c2nc(-c3ccc(OCCCNC)c(C(C)C)c3)nc3ccc(Cl)cc23)c1C [Compound 440]	2050 nM	88.2 nM	991 nM	937 nM	
CCn1ncc(CN(C)C(=O)c2nc(-c3ccc(OCCNC)c(Cl)c3)nc3ccc(C(F)F)cc23)c1C [Compound 441]	269 nM	50.3 nM	216 nM	36.7 nM	
CCn1ncc(CN(C)C(=O)c2cc(-c3ccc(OCCNC)c(C)n3)nc3ccc(Cl)cc23)c1C [Compound 442]	195 nM	76.9 nM	350 nM	414 nM	
CCn1ncc(CN(C)C(=O)c2nc(-c3cnnc(C(=O)NC)c3)nc3ccc(Cl)cc23)c1C [Compound 443]	20000 nM	≥ 50000 nM	20000 nM	≥ 50000 nM	
CCn1ncc(CN(C)C(=O)c2nc(-c3cc(C)cc(NC4CNC4)c3)nc3ccc(Cl)cc23)c1C [Compound 444]	160 nM	12.3 nM	58.2 nM	4.1 nM	
CCn1ncc(CN(C)C(=O)c2nc(-c3ccc(OCCCNC)c(C)c3C)nc3ccc(Cl)cc23)c1C [Compound 446]	112 nM	24.8 nM	34.2 nM	13.2 nM	
CCn1ncc(CN(C)C(=O)c2cc(-c3cc(C(=O)NC)n(C)n3)nc3ccc(Cl)cc23)c1C [Compound 447]	51.4 nM	12.1 nM	68.8 nM	2 nM	
CCn1ncc(CN(C)C(=O)c2nc(-c3nn(C)c(C(=O)NC)c3Cl)nc3ccc(Cl)cc23)c1C [Compound 448]	14300 nM	48300 nM	12600 nM	35500 nM	
CCn1ncc(CN(C)C(=O)c2cc(-c3ccc(NCCNC)c(C)n3)nc3ccc(C4CC4)cc23)c1C [Compound 449]	221 nM	49.8 nM	135 nM	51.1 nM	
CCn1ncc(CN(C)C(=O)c2nc(-c3cc(-c4ncon4)n(C)n3)nc3ccc(Cl)cc23)c1C [Compound 450]	20000 nM	≥ 50000 nM	20000 nM	24600 nM	
CCn1ncc(CN(C)C(=O)c2nc(-c3cc(C)c(OCCCNC)c(NC)c3)nc3ccc(Cl)cc23)c1C [Compound 451]	13000 nM	3010 nM	2280 nM	3880 nM	
CCn1ncc(CN(C)C(=O)c2nc(-c3ccc(OCCNC)c(Cl)c3)nc3ccc(S(C)(=O)=O)cc23)c1C [Compound 453]	4830 nM	3910 nM	1200 nM	2360 nM	
